Measurements from ChEMBL document CHEMBL4402583, “Rational Substitution of ε-Lysine for α-Lysine Enhances the Cell and Membrane Selectivity of Pore-Forming Melittin” (J Med Chem, 2020).
Values after ≈ are worked out from the molar mass of the structure shown. Active and inactive are the calls of the source. No cut-off for these calls is given here.

Assays:
HaCaT = test: Cytotoxicity against human HaCaT cells assessed as truncation and reduction in cytoskeleton at 500 ug/ml incubated for 24 hrs by Alexa Fluor […] phalloidin-FITC/Hoescht dye staining based fluorescence microscopic analysis; format: cell-based
Acinetobacter baumannii [1] = test: Antibacterial activity against Acinetobacter baumannii ATCC 19606 assessed as reduction in bacterial growth at sublethal concentrations measured after 20 serial passages by broth microdilution method; format: functional, organism-based; conditions: ATCC 19606 = CIP 70.34 = JCM 6841
[2] = Stability of the compound in rabbit tear fluid measured after 2 hrs by UPLC-MS analysis; format: ADME, Oryctolagus cuniculus
Candida albicans = test: Antifungal activity against Candida albicans assessed as reduction in fungal growth incubated for 24 hrs by broth microdilution method; format: functional
T-cell [3] = test: Immunogenicity in human PBL T cells assessed as increase in IFN-gamma production at 62.5 or 125 ug/ml incubated for 24 hrs by ELISA; format: ADME, cell-based
Pseudomonas aeruginosa = test: Antibacterial activity against Pseudomonas aeruginosa assessed as reduction in bacterial growth incubated for 24 hrs by broth microdilution method; format: functional
Oryctolagus cuniculus [4] = test: Induction of reepithelialization in injured New Zealand white rabbit cornea assessed as wound healing administered topically for qid measured at day 8 post-injury by fluorescein sodium staining based microscopic imaging analysis (reference value: 3.8 %); format: organism-based; conditions: in vivo, topical_or_ocular
Staphylococcus aureus [5] = test: Antibacterial activity against methicillin-sensitive Staphylococcus aureus assessed as reduction in bacterial growth incubated for 24 hrs by broth microdilution method; format: functional
Enterococcus = test: Antibacterial activity against vancomycin-resistant Enterococcus assessed as reduction in bacterial growth incubated for 24 hrs by broth microdilution method; format: functional
NHDF = test: Cytotoxicity against HDF cells assessed as truncation and reduction in cytoskeleton at 500 ug/ml incubated for 24 hrs by Alexa Fluor […] phalloidin-FITC/Hoescht dye staining based fluorescence microscopic analysis; format: cell-based; conditions: human
Enterococcus faecalis [6] = test: Resistance index, ratio of MIC for vancomycin-resistant Enterococcus faecalis 1010 measured after 20 serial passages by broth microdilution method to MIC for vancomycin-resistant Enterococcus faecalis 1010 incubated for 24 hrs by broth microdilution method; format: functional
Escherichia coli [7] = test: Induction of pore formation in intact Escherichia coli 1004 cell membrane assessed as SG uptake at 2 times MIC by SG dye based fluorescence based assay; format: organism-based
Acinetobacter baumannii [8] = test: Antibacterial activity against multidrug-resistant Acinetobacter baumannii assessed as reduction in bacterial growth incubated for 24 hrs by broth microdilution method; format: functional
T-cell [9] = test: Immunogenicity in human PBL T cells assessed as increase in IL-4 production at 62.5 or 125 ug/ml incubated for 24 hrs by ELISA; format: ADME, cell-based
Oryctolagus cuniculus [10] = test: Induction of reepithelialization in injured New Zealand white rabbit cornea assessed as wound healing administered topically for qid measured at day 6 post-injury by fluorescein sodium staining based microscopic imaging analysis (reference value: 24.1 +/- 8.5 %); format: organism-based; conditions: in vivo, topical_or_ocular
Escherichia coli [11] = test: Antibacterial activity against Escherichia coli 1004 assessed as reduction in bacterial viability at 2 or 4 times MIC incubated up to 24 hrs in MHB medium followed by reincubation on MH agar plate for 24 to 48 hrs by time kill kinetics assay; format: functional, organism-based
[12] = Hemolytic activity against human erythrocytes assessed as hemoglobin release incubated for 1 hr; format: ADME, cell-based, Erythrocyte; conditions: read-out: HD50
[13] = Stability of the compound in rabbit tear fluids assessed as parent compound remaining measured after 4 hrs by UPLC-MS analysis; format: ADME, Oryctolagus cuniculus; conditions: tear fluid, read-out: Stability
Oryctolagus cuniculus [14] = test: Induction of reepithelialization in injured New Zealand white rabbit cornea assessed as wound healing administered topically for qid measured at day 7 post-injury by fluorescein sodium staining based microscopic imaging analysis (reference value: 8.6 %); format: organism-based; conditions: in vivo, topical_or_ocular
T-cell [15] = test: Immunogenicity in human PBL T cells assessed as increase in IL-2 production at 62.5 or 125 ug/ml incubated for 24 hrs by ELISA; format: ADME, cell-based
Staphylococcus aureus [16] = test: Antibacterial activity against methicillin-resistance Staphylococcus aureus assessed as reduction in bacterial growth incubated for 24 hrs by broth microdilution method; format: functional
Enterococcus faecalis [17] = test: Antibacterial activity against vancomycin-resistant Enterococcus faecalis 1010 assessed as log10 reduction in bacterial viability at 2 to 4 times MIC incubated for 30 mins in MHB medium followed by reincubation on MH agar plate for 24 to 48 hrs by time kill kinetics analysis; format: functional
Enterobacteriaceae = test: Antibacterial activity against Carbapenem-Resistant Enterobacteriaceae assessed as reduction in bacterial growth incubated for 24 hrs by broth microdilution method; format: functional
Acinetobacter baumannii [18] = test: Antibacterial activity against Acinetobacter baumannii 1001 assessed as reduction in bacterial viability at 2 or 4 times MIC incubated up to 24 hrs in MHB medium followed by reincubation on MH agar plate for 24 to 48 hrs by time kill kinetics assay; format: functional, organism-based
Enterococcus faecalis [19] = test: Induction of pore formation in intact vancomycin-resistant Enterococcus faecalis 1002 cell membrane assessed as SG uptake at 2 times MIC by SG dye based fluorescence based assay; format: organism-based
Klebsiella pneumoniae = test: Antibacterial activity against Klebsiella pneumoniae 1008 assessed as reduction in bacterial viability at 2 or 4 times MIC incubated up to 24 hrs in MHB medium followed by reincubation on MH agar plate for 24 to 48 hrs by time kill kinetics assay; format: functional, organism-based
Staphylococcus aureus [20] = test: In vivo antibacterial activity against Staphylococcus aureus ATCC 29213 infected in C57BL/6 mouse assessed as reduction in bacterial burden by measuring log10 CFU/cornea at 0.3% administered topically as two times on day 1, four times on day 2 and two times on day 3 measured at 48 hrs post-final dose by 10 fold serial dilution method (reference value: 6.5 +/- 0.7 log10CFU); format: functional
T-cell [21] = test: Immunogenicity in human PBL T cells assessed as increase in IL-5 production at 62.5 or 125 ug/ml incubated for 24 hrs by ELISA; format: ADME, cell-based
Enterococcus faecalis [22] = test: Antibacterial activity against vancomycin-resistant Enterococcus faecalis 1002 assessed as log10 reduction in bacterial viability at 2 to 4 times MIC incubated for 30 mins in MHB medium followed by reincubation on MH agar plate for 24 to 48 hrs by time kill kinetics analysis; format: functional
Oryctolagus cuniculus [23] = test: Induction of reepithelialization in injured New Zealand white rabbit cornea assessed as wound healing administered topically for qid measured at day 4 post-injury by fluorescein sodium staining based microscopic imaging analysis (reference value: 48.4 +/- 7.6 %); format: organism-based; conditions: in vivo, topical_or_ocular
Enterococcus faecalis [24] = test: Antibacterial activity against vancomycin-resistant Enterococcus faecalis ATCC 29212 assessed as log10 reduction in bacterial viability at 2 to 4 times MIC incubated for 30 mins in MHB medium followed by reincubation on MH agar plate for 24 to 48 hrs by time kill kinetics analysis; format: functional
Oryctolagus cuniculus [25] = test: Induction of reepithelialization in injured New Zealand white rabbit cornea assessed as wound healing administered topically for qid measured at day 5 post-injury by fluorescein sodium staining based microscopic imaging analysis (reference value: 39.8 +/- 6.2 %); format: organism-based; conditions: in vivo, topical_or_ocular
[26] = Cytotoxicity against HDF cells assessed as cell viability at 500 ug/ml incubated for 24 hrs by MTS assay relative to control; format: cell-based; conditions: human, HDF cells (NHDF, human dermal fibroblasts); read-out: Activity
Oryctolagus cuniculus [27] = test: Induction of reepithelialization in injured New Zealand white rabbit cornea assessed as wound healing at 0.3% administered topically for qid measured at day 1 post-injury by fluorescein sodium staining based microscopic imaging analysis (reference value: 89.9 +/- 2.9 %); format: organism-based; conditions: in vivo, topical_or_ocular
Oryctolagus cuniculus [28] = test: Induction of reepithelialization in injured New Zealand white rabbit cornea assessed as wound healing administered topically for qid measured at day 3 post-injury by fluorescein sodium staining based microscopic imaging analysis (reference value: 63.9 +/- 5.3 %); format: organism-based; conditions: in vivo, topical_or_ocular
Oryctolagus cuniculus [29] = test: Induction of reepithelialization in injured New Zealand white rabbit cornea assessed as wound healing administered topically for qid measured at day 2 post-injury by fluorescein sodium staining based microscopic imaging analysis (reference value: 76.6 +/- 4.5 %); format: organism-based; conditions: in vivo, topical_or_ocular
Acinetobacter baumannii [30] = test: Induction of pore formation in intact Acinetobacter baumannii 1001 cell membrane assessed as SG uptake at 2 times MIC by SG dye based fluorescence based assay; format: organism-based
Enterococcus faecalis [31] = test: Induction of pore formation in intact vancomycin-resistant Enterococcus faecalis ATCC 29212 cell membrane assessed as SG uptake at 2 times MIC by SG dye based fluorescence based assay; format: organism-based

Question: Which results are given for `CC[C@H](C)[C@H](NC(=O)CN)C(=O)NCC(=O)N[C@@H](C)C(=O)N[C@H](C(=O)N[C@@H](CC(C)C)C(=O)NCCC[C@@H](CN)C(=O)N[C@H](C(=O)N[C@@H](CC(C)C)C(=O)N[C@H](C(=O)N[C@H](C(=O)NCC(=O)N[C@@H](CC(C)C)C(=O)N1CCC[C@H]1C(=O)N[C@@H](C)C(=O)N[C@@H](CC(C)C)C(=O)N[C@H](C(=O)N[C@@H](CO)C(=O)N[C@@H](Cc1c[nH]c2ccccc12)C(=O)N[C@H](C(=O)NCCC[C@@H](CN)C(=O)N[C@@H](CCCNC(=N)N)C(=O)N[C@@H](CCCCN)C(=O)N[C@@H](CCCNC(=N)N)C(=O)N[C@@H](CCC(N)=O)C(=O)N[C@@H](CCC(N)=O)C(N)=O)[C@@H](C)CC)[C@@H](C)CC)[C@@H](C)O)[C@@H](C)O)C(C)C)C(C)C`?
Answer: Activity (HaCaT): Toxic; Activity (Acinetobacter baumannii [1]): Active; Stability [2]: Stable; MIC (Candida albicans): 16 to 32 µg/mL (≈ 5.62 to 11.2 µM); MIC50 (Candida albicans): 32 µg/mL (≈ 11.2 µM); Activity (T-cell [3]): Non-Toxic; MIC (Pseudomonas aeruginosa): 8 to 64 µg/mL (≈ 2.81 to 22.5 µM); MIC50 (Pseudomonas aeruginosa): 32 µg/mL (≈ 11.2 µM); Activity (Oryctolagus cuniculus [4]): 2.9%; MIC (Staphylococcus aureus [5]): 16 to 128 µg/mL (≈ 5.62 to 45 µM); MIC50 (Staphylococcus aureus [5]): 64 µg/mL (≈ 22.5 µM); MIC (Enterococcus): 4 to 16 µg/mL (≈ 1.41 to 5.62 µM); MIC50 (Enterococcus): 8 µg/mL (≈ 2.81 µM); Activity (NHDF): Toxic; Ratio (Enterococcus faecalis [6]): 4; Activity (Escherichia coli [7]): Active; MIC (Acinetobacter baumannii [8]): 2 to 8 µg/mL (≈ 0.703 to 2.81 µM); MIC50 (Acinetobacter baumannii [8]): 4 µg/mL (≈ 1.41 µM); Activity (T-cell [9]): Non-Toxic; Activity (Oryctolagus cuniculus [10]): 14.7%; Activity (Escherichia coli [11]): Active; HC50 at 1 h [12]: 215 µg/mL; remaining at 4 h [13]: 90.3%; Activity (Oryctolagus cuniculus [14]): 4.6%; Activity (T-cell [15]): Non-Toxic; MIC50 (Staphylococcus aureus [16]): 64 µg/mL (≈ 22.5 µM); log(activity) (Enterococcus faecalis [17]): >5; MIC (Enterobacteriaceae): 4 to 64 µg/mL (≈ 1.41 to 22.5 µM); MIC50 (Enterobacteriaceae): 8 µg/mL (≈ 2.81 µM); Activity (Acinetobacter baumannii [18]): Active; Activity (Enterococcus faecalis [19]): Active; Activity (Klebsiella pneumoniae): Active; Activity (Staphylococcus aureus [20]): 3.9 log10CFU; Activity (T-cell [21]): Non-Toxic; log(activity) (Enterococcus faecalis [22]): >5; Activity (Oryctolagus cuniculus [23]): 33.1%; log(activity) (Enterococcus faecalis [24]): >5; Activity (Oryctolagus cuniculus [25]): 21.7%; viability at 24 h, 500 ug/ml [26]: 91.9%; Activity (Oryctolagus cuniculus [27]): 83.4%; Activity (Oryctolagus cuniculus [28]): 44.9%; Activity (Oryctolagus cuniculus [29]): 60.3%; Activity (Acinetobacter baumannii [30]): Active; Activity (Enterococcus faecalis [31]): Active
